Where two headings read alike, the source gives them in different places.
Experiments:
Assay type in all cases: cell-based
RPMI-8226 = experiment: NCI 60 antitumor screening (single dose / five doses); settings: Homo sapiens
KM 12 = experiment: NCI 60 antitumor screening (single dose); settings: Homo sapiens, KM12; KM 12 (colon cancer), single dose 10 μM; read-out: Growth inhibition percentage (GI %)
In short: (§1)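 Values are GI% (100 minus percent growth, G%) from the NCI 60 cell line screen at one 10 μM concentration. Tests were done in triplicate under NCI protocol, with a mean across the whole panel reported as well.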

SF-268 = experiment: NCI 60 antitumor screening (single dose); settings: Homo sapiens; SF-268 (CNS cancer), single dose 10 μM; read-out: Growth inhibition percentage (GI %)
In short: (§2)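 Compounds were tested at a single 10 μM dose against the NCI 60-cell-line panel (nine tumour types), in triplicate. Growth was recorded as percent growth (G%) of treated cells, and growth inhibition was taken as GI% = 100 − G%.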

NCI-H322M = experiment: NCI 60 antitumor screening (single dose); settings: Homo sapiens; NCI-H322M (non-small cell lung cancer), single dose 10 μM; read-out: Growth inhibition percentage (GI %)
In short: as §1

OVCAR-5 = experiment: NCI 60 antitumor screening (single dose); settings: Homo sapiens; OVCAR-5 (ovarian cancer), single dose 10 μM; read-out: Growth inhibition percentage (GI %)
In short: as §2

OVCAR-8 = experiment: NCI 60 antitumor screening (single dose); settings: Homo sapiens; OVCAR-8 (ovarian cancer), single dose 10 μM; read-out: Growth inhibition percentage (GI %)
In short: as §1

MCF7 = experiment: NCI 60 antitumor screening (single dose); settings: Homo sapiens; MCF7 (breast cancer), single dose 10 μM; read-out: Growth inhibition percentage (GI %)
In short: as §1

HS 578T = experiment: NCI 60 antitumor screening (single dose); settings: Homo sapiens; HS 578T (breast cancer), single dose 10 μM; read-out: Growth inhibition percentage (GI %)
In short: as §1

SNB-19 = experiment: NCI 60 antitumor screening (single dose); settings: Homo sapiens; SNB-19 (CNS cancer), single dose 10 μM; read-out: Growth inhibition percentage (GI %)
In short: as §1

CAKI-1 = experiment: NCI 60 antitumor screening (single dose); settings: Homo sapiens; CAKI-1 (renal cancer), single dose 10 μM; read-out: Growth inhibition percentage (GI %)
In short: as §1

PC-3 = experiment: NCI 60 antitumor screening (single dose); settings: Homo sapiens; PC-3 (prostate cancer), single dose 10 μM; read-out: Growth inhibition percentage (GI %)
In short: as §1

NCI-H460 = experiment: NCI 60 antitumor screening (single dose); settings: Homo sapiens; NCI-H460 (non-small cell lung cancer), single dose 10 μM; read-out: Growth inhibition percentage (GI %)
In short: as §2

HOP-62 = experiment: NCI 60 antitumor screening (single dose); settings: Homo sapiens; HOP-62 (non-small cell lung cancer), single dose 10 μM; read-out: Growth inhibition percentage (GI %)
In short: as §2

M14 = experiment: NCI 60 antitumor screening (single dose); settings: Homo sapiens; M14 (melanoma), single dose 10 μM; read-out: Growth inhibition percentage (GI %)
In short: as §1

A549/ATCC = experiment: NCI 60 antitumor screening (single dose); settings: Homo sapiens; A549/ATCC (non-small cell lung cancer), single dose 10 μM; read-out: Growth inhibition percentage (GI %)
In short: as §1

U251 = experiment: NCI 60 antitumor screening (single dose); settings: Homo sapiens, U-251; U251 (CNS cancer), single dose 10 μM; read-out: Growth inhibition percentage (GI %)
In short: as §2

OVCAR-3 = experiment: NCI 60 antitumor screening (single dose); settings: Homo sapiens; OVCAR-3 (ovarian cancer), single dose 10 μM; read-out: Growth inhibition percentage (GI %)
In short: as §1

NCI-H522 = experiment: NCI 60 antitumor screening (single dose); settings: Homo sapiens; NCI-H522 (non-small cell lung cancer), single dose 10 μM; read-out: Growth inhibition percentage (GI %)
In short: as §2

NCI-H226 = experiment: NCI 60 antitumor screening (single dose); settings: Homo sapiens; NCI-H226 (non-small cell lung cancer), single dose 10 μM; read-out: Growth inhibition percentage (GI %)
In short: as §1

TK-10 = experiment: NCI 60 antitumor screening (single dose); settings: Homo sapiens; TK-10 (renal cancer), single dose 10 μM; read-out: Growth inhibition percentage (GI %)
In short: as §1

HCC-2998 = experiment: NCI 60 antitumor screening (single dose); settings: Homo sapiens; HCC-2998 (colon cancer), single dose 10 μM; read-out: Growth inhibition percentage (GI %)
In short: as §2

MALME-3M = experiment: NCI 60 antitumor screening (single dose / five doses); settings: Homo sapiens, read-out: Growth inhibition percentage (GI %)
CCRF-CEM = experiment: as above; settings: Homo sapiens, read-out: Growth inhibition percentage (GI %)
SF-539 = experiment: as above; settings: Homo sapiens
K-562 = experiment: as above; settings: Homo sapiens
ACHN = experiment: as above; settings: Homo sapiens, read-out: Growth inhibition percentage (GI %)
UACC-257 = experiment: as above; settings: Homo sapiens
[1] = RPMI-8226 (leukaemia), single dose 10 μM, read-out: Growth inhibition percentage (GI %)
[2] = MALME-3M (melanoma), single dose 10 μM
[3] = CCRF-CEM (leukaemia), single dose 10 μM
[4] = SF-539 (CNS cancer), single dose 10 μM, read-out: Growth inhibition percentage (GI %)
[5] = K562, K-562 (leukaemia), single dose 10 μM, read-out: Growth inhibition percentage (GI %)
[6] = ACHN (renal cancer), single dose 10 μM
[7] = UACC-257 (melanoma), single dose 10 μM, read-out: Growth inhibition percentage (GI %)

Row | Compound | inhibition at 10 µM (KM 12) | inhibition at 10 µM (SF-268) | inhibition at 10 µM (NCI-H322M) | inhibition at 10 µM (OVCAR-5) | inhibition at 10 µM (OVCAR-8) | inhibition at 10 µM (MCF7) | inhibition at 10 µM (HS 578T) | inhibition at 10 µM (SNB-19) | inhibition at 10 µM (CAKI-1) | inhibition at 10 µM (PC-3) | inhibition at 10 µM (NCI-H460) | inhibition at 10 µM (HOP-62) | inhibition at 10 µM (M14) | inhibition at 10 µM (A549/ATCC) | inhibition at 10 µM (U251) | inhibition at 10 µM (OVCAR-3) | inhibition at 10 µM (NCI-H522) | inhibition at 10 µM (NCI-H226) | inhibition at 10 µM (TK-10) | inhibition at 10 µM (HCC-2998) | other results
1 | C/C(=N\Nc1nc(N/N=C(\C)c2ccc([N+](=O)[O-])cc2)nc(N2CCOCC2)n1)c1ccc([N+](=O)[O-])cc1 [compound 8a, 2-(Morpholin-4-yl)-4,6-bis[(E)-2-[1–(4-nitrophenyl)ethylidene]hydrazin-1-yl]-1,3,5-triazine] | 17.9% | 3.96% | 13.3% | 4.46% | 36.4% | 25.9% | 21.3% | 36.9% | 30.8% | 23.4% | 21.9% | 13.8% | 25.5% | 26.1% | 7.36% | 11.6% | 38.3% | 58.1% | 19.2% | 3.95% | inhibition at 10 µM (RPMI-8226; RPMI-8226, read-out: Growth inhibition percentage (GI %)): 35.3%; inhibition at 10 µM (MALME-3M; Malme-3M): 30.6%; inhibition at 10 µM (CCRF-CEM; CCRF-CEM): 38.4%; inhibition at 10 µM (SF-539; SF-539, read-out: Growth inhibition percentage (GI %)): 84.5%; inhibition at 10 µM (K-562; K562, read-out: Growth inhibition percentage (GI %)): 20.3%; inhibition at 10 µM (ACHN; ACHN): 22.1%; inhibition at 10 µM (UACC-257; UACC-257, read-out: Growth inhibition percentage (GI %)): 0.81%
2 | O=C1Nc2ccc(Cl)cc2/C1=N\Nc1nc(N/N=C2/C(=O)Nc3ccc(Cl)cc32)nc(N2CCOCC2)n1 [compound 8b, (3E)-5-Chloro-3-[2–(4-{2-[(3E)-5-chloro-2-oxo-2,3-dihydro-1H-indol-3-ylidene]hydrazin-1-yl}6-(morpholin-4-yl)-1,3,5-triazin-2-yl)hydrazin-1-ylidene]-2,3-dihydro-1H-indol-2-one] | 18.8% | 50.9% | 21.9% | 4.93% | 49.9% | 56.9% | 108% | 109% | 28% | 43.9% | 11.8% | 62.4% | 22.5% | -1.37% | 96.2% | 47.3% | 94.9% | 42.7% | -18.5% | 24.5% | inhibition at 10 µM (RPMI-8226; [1]): 63.6%; inhibition at 10 µM (MALME-3M; [2]): 43.6%; inhibition at 10 µM (CCRF-CEM; [3]): 79.8%; inhibition at 10 µM (SF-539; [4]): 84%; inhibition at 10 µM (K-562; [5]): 67.1%; inhibition at 10 µM (ACHN; [6]): 25.5%; inhibition at 10 µM (UACC-257; [7]): 18%
3 | O=C(NNc1nc(NNC(=O)c2ccccc2)nc(N2CCOCC2)n1)c1ccccc1 [compound 8d, N'-[4-(morpholin-4-yl)-6-(phenylhydrazido)-1,3,5-triazin-2-yl]benzohydrazide] | -5.4% | -1.5% | 4.42% | -4.08% | 3.15% | 0.71% | -6.14% | 3.32% | 3.15% | -7.68% | -1.86% | -11.8% | -0.8% | 1.66% | -0.3% | -5.45% | -2.83% | 4.42% | -10.8% | -5.88% | inhibition at 10 µM (RPMI-8226; [1]): -9.42%; inhibition at 10 µM (MALME-3M; [2]): -7.11%; inhibition at 10 µM (CCRF-CEM; [3]): -6.05%; inhibition at 10 µM (SF-539; [4]): 2.56%; inhibition at 10 µM (K-562; [5]): -6.16%; inhibition at 10 µM (ACHN; [6]): -4.4%; inhibition at 10 µM (UACC-257; [7]): 1.13%
